Active and inactive are the calls of the source. The calls are words filed in the database; no cut-off is given here.
Assays:
Bacillus subtilis [1] = assay: Antibacterial activity against Bacillus subtilis 168 assessed as inhibition of exponential phase of bacterial growth at 200 uM measured every 10 mins for 16 hrs by FLUOstar Optima plate reader analysis relative to control; type: functional; settings: read-out: GI
Escherichia coli [2] = assay: Antibacterial activity against Escherichia coli DH5[alpha] assessed as growth inhibition at 200 uM measured every 10 mins for 16 hrs by FLUOstar Optima plate reader analysis relative to control; type: functional; settings: for inhibition of growth at 200 µM: read-out: GI
BL21-DE3 = assay: Inhibition of Bacillus subtilis C-terminal GST-tagged RNAP beta'-CH expressed in Escherichia coli BL21 (DE3) cells binding interaction with Escherichia coli sigma-70/Bacillus subtilis full length SigmaA2.2 expressed in Escherichia coli C41 (DE3) cells using TMB as substrate at 15 uM preincubated for 1 hr followed by substrate addition by ELISA relative to control
[3] = Solubility of compound in Luria-Bertani medium at 200 uM; type: physicochemical
Bacillus subtilis [4] = assay: Antibacterial activity against Bacillus subtilis 168 assessed as growth inhibition at 200 uM measured every 10 mins for 16 hrs by FLUOstar Optima plate reader analysis relative to control; type: functional; settings: for inhibition of growth at 200 µM: read-out: GI
Escherichia coli [5] = assay: Antibacterial activity against Escherichia coli DH5[alpha] assessed as inhibition of exponential phase of bacterial growth at 200 uM measured every 10 mins for 16 hrs by FLUOstar Optima plate reader analysis relative to control; type: functional; settings: read-out: GI

SMILES	solubility [3]	inhibition of growth at 200 µM (Bacillus subtilis [1]) [%]	growth inhibition (GI) (Escherichia coli [2])	inhibition (BL21-DE3)	growth inhibition (GI) (Bacillus subtilis [4])	inhibition of growth at 200 µM (Escherichia coli [2]) [%]	inhibition of growth at 200 µM (Escherichia coli [5]) [%]	inhibition of growth at 200 µM (Bacillus subtilis [4]) [%]
COc1cc(OC)c2c(-c3ccc(Cl)cc3)c[nH]c2c1C(=O)NNC(=O)c1ccnc(Br)c1	soluble	25	inactive	24%				
O=C(N/N=C/c1ccc[nH]1)c1ccnc(Br)c1	soluble			8%	inactive	53		
O=C(N/N=C/c1ccco1)c1cccs1	soluble			18%			50	4
COc1cc(OC)c2c(C)c(C(=O)NNC(=O)c3c(OC)cc(OC)c4c(-c5ccc(Cl)cc5)c[nH]c34)[nH]c2c1				72%		45		
COc1cc(OC)c2c(-c3ccc(Br)cc3)c[nH]c2c1C(=O)N/N=C/c1ccco1	soluble			33%	inactive	16		
COc1cc(OC)c2c(-c3ccc(Br)cc3)c[nH]c2c1C(=O)NNC(=O)c1cccs1	soluble		inactive	inactive	inactive			
COc1cc(OC)c2c(-c3ccc(Br)cc3)c[nH]c2c1C(=O)N/N=C/c1ccc[nH]1	soluble		inactive	46%	inactive			
COc1cc(OC)c2c(-c3ccc(Cl)cc3)c[nH]c2c1C(=O)NNC(=O)c1cccs1	soluble		inactive	inactive	inactive			
COc1cnc(Cl)cc1C(=O)NNC(=O)c1c(OC)cc(OC)c2c(-c3ccc(Cl)cc3)c[nH]c12	soluble	37		28%		26		
O=C(N/N=C/c1cccs1)c1ccncc1Br	soluble			8%		18		11
COc1cc(OC)c2c(-c3ccc(Br)cc3)c[nH]c2c1C(=O)N/N=C/c1cccs1	soluble			inactive	inactive	29		
O=C(N/N=C/c1cccs1)c1ccnc(Cl)c1	soluble	29		30%		30		
COc1cc(OC)c2c(-c3ccc(Cl)cc3)c[nH]c2c1C(=O)NNC(=O)c1c(OC)cc(OC)c2c(-c3ccc(Cl)cc3)c[nH]c12				63%				30
O=C(N/N=C/c1cc(Br)cs1)c1ccco1	soluble			inactive	inactive	7		
O=C(N/N=C/c1cccs1)c1ccco1				29%	inactive	23		
O=C(N/N=C/c1cc(Br)cs1)c1ccc[nH]1	soluble	73		27%			51	
COc1cc(OC)c2c(-c3ccc(Br)cc3)c[nH]c2c1C(=O)NNC(=O)c1ccnc(Br)c1	soluble	29	inactive	20%				
CO[C@H]1/C=C/O[C@@]2(C)Oc3c(C)c(O)c4c(O)c(c(/C=N/N5CCN(C)CC5)c(O)c4c3C2=O)NC(=O)/C(C)=C\C=C\[C@H](C)[C@H](O)[C@@H](C)[C@@H](O)[C@@H](C)[C@H](OC(C)=O)[C@@H]1C [RIFAMPIN]						98		100
O=C(N/N=C/c1ccco1)c1ccco1	soluble			3%	inactive	18		
O=C(N/N=C/c1ccc[nH]1)c1cccs1	soluble			34%		22		33
O=C(N/N=C/c1ccc[nH]1)c1ccc[nH]1	soluble			41%		21		30
COc1cc(OC)c2c(-c3ccc(Cl)cc3)c[nH]c2c1C(=O)N/N=C/c1cccs1	soluble		inactive	38%	inactive			
COc1cc(OC)c2c(-c3ccc(Cl)cc3)c[nH]c2c1C(=O)N/N=C/c1ccco1	soluble			34%			37	7
O=C(N/N=C/c1cccs1)c1ccnc(Br)c1	soluble			6%		59		35
O=C(N/N=C/c1ccco1)c1ccnc(Cl)c1	soluble			32%	inactive	3		
O=C(N/N=C/c1cccs1)c1cccs1				27%	inactive		56	

Further lines, with some results ahead:

solubility [3]	SMILES	inhibition of growth at 200 µM (Bacillus subtilis [1]) [%]	growth inhibition (GI) (Escherichia coli [2])	inhibition (BL21-DE3)	growth inhibition (GI) (Bacillus subtilis [4])	inhibition of growth at 200 µM (Escherichia coli [2]) [%]	inhibition of growth at 200 µM (Escherichia coli [5]) [%]	inhibition of growth at 200 µM (Bacillus subtilis [4]) [%]
soluble	O=C(N/N=C/c1cc(Br)cs1)c1cccs1			36%	inactive	23		
soluble	COc1cc(OC)c2c(-c3ccc(Br)cc3)c[nH]c2c1C(=O)NNC(=O)c1ccnc(Cl)c1			17%	inactive	15		
soluble	O=C(N/N=C/c1ccc[nH]1)c1ccco1		inactive	21%	inactive			
soluble	COc1cc(OC)c2c(-c3ccc(Br)cc3)c[nH]c2c1C(=O)NNC(=O)c1ccc[nH]1		inactive	inactive	inactive			
soluble	O=C(N/N=C/c1ccco1)c1ccc[nH]1			8%	inactive	3		
soluble	O=C(N/N=C/c1cccs1)c1ccc[nH]1			20%	inactive		26	
soluble	COc1cc(OC)c2c(-c3ccc(Cl)cc3)c[nH]c2c1C(=O)NNC(=O)c1ccnc(Cl)c1			14%		10		17
soluble	O=C(N/N=C/c1ccc[nH]1)c1ccncc1Br			9%	inactive	7		
soluble	O=C(N/N=C/c1ccc[nH]1)c1ccnc(Cl)c1			31%		22		6
soluble	COc1cc(OC)c2c(-c3ccc(Cl)cc3)c[nH]c2c1C(=O)NNC(=O)c1ccncc1Br	74		11%			47	
soluble	COc1cc(OC)c2c(-c3ccc(Br)cc3)c[nH]c2c1C(=O)NNC(=O)c1ccncc1Br	52		3%		14		
soluble	COc1cc(OC)c2c(-c3ccc(Cl)cc3)c[nH]c2c1C(=O)NNC(=O)c1ccc[nH]1		inactive	inactive	inactive			
soluble	COc1cnc(Cl)cc1C(=O)NNC(=O)c1c(OC)cc(OC)c2c(-c3ccc(Br)cc3)c[nH]c12			17%		24		13

Reference: ChEMBL document CHEMBL3758170, “From indole to pyrrole, furan, thiophene and pyridine: Search for novel small molecule inhibitors of bacterial transcription initiation complex formation” (Bioorg Med Chem, 2016)
